In US20070027080A1, “Method for treatment of vitiligo” (priority 2005, published 2007):

Columns and labels:
[1] = test system: fast spreading vitiligo; assay: Clinical trial: disease activity (arrest of spread) of fast spreading vitiligo, OMP of beta methasone with or without the peptide; format: in vivo, human
Text: (§1) That this happens was shown in a clinical trial on human volunteers. The above twin objectives were accomplished. FIG. 2a describes two vitiligo patches at the start of treatment of oral steroids, while 2b describes the same patches at the end of 3 months of treatment with oral steroids while at the same time bFGF peptide(s) lotion was applied locally once a day on the lower vitiligo patch for the duration of intake of oral steroids. […] The arrest of the fast spread of the disease was accomplished to the same extent of 88% at the end of 6 months of treatment with oral steroids and the result was not altered by the local application of bFGF peptide(s) lotion (See table 3 for more details)

[2] = test system: vitiligo patches of volunteers; assay: Clinical trial: repigmentation of vitiligo patches, OMP of beta methasone with or without local application of the peptide; format: in vivo, human
Text: as §1
At the end of 3 months of combinatorial treatment with steroids and local application of bFGF peptide(s) lotion more than 3 fold more patients got pigmented to a marked extent than with steroid alone (See Table 4 for more details). The percentage of volunteers who had moderate and marked rate of repigmentation with combinatorial therapy at the end of three months of treatment is twice than with the steroid therapy alone.

Structure (SMILES): C[C@H]1C[C@H]2[C@@H]3CCC4=CC(=O)C=C[C@]4(C)[C@@]3(F)[C@@H](O)C[C@]2(C)[C@@]1(O)C(=O)CO [OMP Alone, beta methasone]
- No. of patients where the disease was arrested with time ([1]; At 3 months): 12
- Percentage of patients where the disease was arrested ([1]; At 3 months): 75%
- No. of patients where the disease was arrested with time ([1]; At 6 months): 14
- Percentage of patients where the disease was arrested ([1]; At 6 months): 87.50%
- Percentage of patients where the disease was arrested ([1]; At 6 months, listed as oral steroids): 88%
- Marked repigmentation, % of volunteers ([2]; At 3 months): 12.5%
- Marked repigmentation, number of volunteers ([2]; At 3 months): 2
- Minimal repigmentation, % of volunteers ([2]; At 3 months): 68.75%
- Minimal repigmentation, number of volunteers ([2]; At 3 months): 11
- Moderate repigmentation, % of volunteers ([2]; At 3 months): 18.75%
- Moderate repigmentation, number of volunteers ([2]; At 3 months): 3
- Marked repigmentation, % of volunteers ([2]; At 6 months): 25%
- Marked repigmentation, number of volunteers ([2]; At 6 months): 4
- Minimal repigmentation, % of volunteers ([2]; At 6 months): 50%
- Minimal repigmentation, number of volunteers ([2]; At 6 months): 8
- Moderate repigmentation, % of volunteers ([2]; At 6 months): 25%
- Moderate repigmentation, number of volunteers ([2]; At 6 months): 4
